The text below walks through data of ChEMBL document CHEMBL3217479, “Overcoming retinoic acid receptor- based testicular toxicity in the optimisation of glucokinase activators” (Medchemcomm, 2011).

Structures are written as SMILES. pEC50, pIC50: −log10 of the molar value. Converted amounts (≈) assume the structure as drawn. Some results are limits rather than exact numbers.

The pIC50 is −log10 of the IC50, conventionally taken in molar units. As usually defined, the inhibition in vivo is how much of the control response was suppressed. What is called pEC50 is −log10 of the EC50, conventionally taken in molar units. Read a high pEC50 as a small EC50. Usually logD stands for the decadic logarithm of the distribution of all forms, ionised or not, between an organic phase and buffer at a given pH. One may read the solubility as how much of the substance goes into solution per volume. High values mean much dissolved substance, low ones little dissolved substance. What is called Papp A→B is the apparent permeability from the apical to the basolateral side of a cell layer.

Data set [1] deals with T1, Retinoic acid receptor alpha (Homo sapiens, UniProt P10276).
T1 sequence (P10276 whole entry): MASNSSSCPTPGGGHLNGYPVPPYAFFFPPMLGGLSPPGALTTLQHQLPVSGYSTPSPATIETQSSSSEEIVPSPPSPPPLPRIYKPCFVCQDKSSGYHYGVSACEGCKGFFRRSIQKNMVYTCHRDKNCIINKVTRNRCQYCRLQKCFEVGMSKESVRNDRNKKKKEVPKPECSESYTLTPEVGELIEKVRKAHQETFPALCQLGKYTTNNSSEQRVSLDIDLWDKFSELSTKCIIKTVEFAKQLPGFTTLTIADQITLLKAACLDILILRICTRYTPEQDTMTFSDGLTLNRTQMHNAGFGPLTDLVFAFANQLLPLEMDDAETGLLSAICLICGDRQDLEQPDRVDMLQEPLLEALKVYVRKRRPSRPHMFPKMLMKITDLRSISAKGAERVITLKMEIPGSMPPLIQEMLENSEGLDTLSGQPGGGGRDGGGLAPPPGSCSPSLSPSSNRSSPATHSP
Nature of the data set: Inhibition of RAR alpha (unknown origin).

Data set [2] relates to Rattus norvegicus. Nature of the data set: Antidiabetic activity in rat assessed as reduction of glucose AUC at 3 mg/kg by oral glucose tolerance test. It counts as functional.
In the next data set the target is T2, Hexokinase-4 (Homo sapiens, UniProt P35557).
T2 sequence (P35557 whole entry): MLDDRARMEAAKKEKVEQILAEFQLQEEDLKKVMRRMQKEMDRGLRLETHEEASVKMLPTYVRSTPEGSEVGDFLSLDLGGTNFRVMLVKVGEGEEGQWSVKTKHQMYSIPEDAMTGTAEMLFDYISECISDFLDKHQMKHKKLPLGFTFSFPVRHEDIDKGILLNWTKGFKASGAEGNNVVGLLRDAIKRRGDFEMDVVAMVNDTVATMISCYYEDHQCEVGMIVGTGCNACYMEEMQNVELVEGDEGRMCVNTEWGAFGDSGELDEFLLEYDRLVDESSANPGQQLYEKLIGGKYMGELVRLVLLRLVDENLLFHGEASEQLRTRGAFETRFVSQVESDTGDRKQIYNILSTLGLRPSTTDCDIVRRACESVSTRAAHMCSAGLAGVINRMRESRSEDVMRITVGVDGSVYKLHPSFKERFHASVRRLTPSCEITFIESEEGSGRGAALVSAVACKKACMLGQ
Nature of the data set: Activation of glucokinase (unknown origin).

Data set [3] in a line: Toxicity in testis (unknown origin). The class given is tissue-based.
The nature of data set [4]: Lipophilicity, log D of the compound. The class given is physicochemical. The following applies: octanol/water.
A short description of data set [5]: Solubility of the compound. It counts as physicochemical.
Data set [6] concerns the target Voltage-gated inwardly rectifying potassium channel KCNH2 (Homo sapiens, UniProt Q12809).
The nature of data set [7]: Apparent permeability from apical to basolateral side of human Caco2 cells. It counts as ADME, cell-based. The following applies: Caco-2. (In general: Passage across Caco-2 layers is used to estimate intestinal permeability.)
Data set [8] deals with T3, Retinoic acid receptor beta (Homo sapiens, UniProt P10826).
T3 sequence (P10826 whole entry): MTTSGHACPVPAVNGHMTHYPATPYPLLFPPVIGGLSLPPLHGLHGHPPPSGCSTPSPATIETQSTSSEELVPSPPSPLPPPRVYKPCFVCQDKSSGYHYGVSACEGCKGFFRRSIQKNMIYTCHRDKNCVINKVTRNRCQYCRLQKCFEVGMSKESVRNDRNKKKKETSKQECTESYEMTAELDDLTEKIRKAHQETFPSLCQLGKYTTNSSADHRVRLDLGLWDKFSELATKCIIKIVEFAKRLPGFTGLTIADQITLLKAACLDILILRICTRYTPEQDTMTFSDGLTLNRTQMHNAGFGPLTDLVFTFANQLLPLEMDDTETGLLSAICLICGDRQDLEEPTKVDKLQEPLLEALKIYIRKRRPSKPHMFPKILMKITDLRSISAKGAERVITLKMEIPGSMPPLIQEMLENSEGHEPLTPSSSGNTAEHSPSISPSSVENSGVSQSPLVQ
Nature of the data set: Inhibition of RAR beta (unknown origin).

The target in data set [9] is T4, Retinoic acid receptor gamma (Homo sapiens, UniProt P13631).
T4 sequence (P13631 whole entry): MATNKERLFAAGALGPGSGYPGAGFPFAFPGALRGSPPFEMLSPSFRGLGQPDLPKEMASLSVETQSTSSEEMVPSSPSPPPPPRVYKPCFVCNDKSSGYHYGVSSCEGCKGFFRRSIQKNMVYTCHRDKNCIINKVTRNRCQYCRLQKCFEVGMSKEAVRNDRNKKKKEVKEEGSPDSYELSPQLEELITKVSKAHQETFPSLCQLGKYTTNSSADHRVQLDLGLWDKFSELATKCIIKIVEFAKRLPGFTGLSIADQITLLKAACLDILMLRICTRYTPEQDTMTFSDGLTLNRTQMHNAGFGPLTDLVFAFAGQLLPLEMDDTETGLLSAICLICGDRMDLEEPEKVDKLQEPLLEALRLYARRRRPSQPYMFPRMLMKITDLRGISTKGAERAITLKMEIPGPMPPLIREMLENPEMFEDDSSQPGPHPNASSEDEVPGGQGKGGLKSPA
Nature of the data set: Inhibition of RAR gamma (unknown origin).

The subject of data set [10] is Rattus norvegicus. Nature of the data set: Antidiabetic activity in rat assessed as reduction of glucose AUC at 10 mg/kg by oral glucose tolerance test. The class given is functional.

Chain of Voltage-gated inwardly rectifying potassium channel KCNH2 (Q12809 whole entry): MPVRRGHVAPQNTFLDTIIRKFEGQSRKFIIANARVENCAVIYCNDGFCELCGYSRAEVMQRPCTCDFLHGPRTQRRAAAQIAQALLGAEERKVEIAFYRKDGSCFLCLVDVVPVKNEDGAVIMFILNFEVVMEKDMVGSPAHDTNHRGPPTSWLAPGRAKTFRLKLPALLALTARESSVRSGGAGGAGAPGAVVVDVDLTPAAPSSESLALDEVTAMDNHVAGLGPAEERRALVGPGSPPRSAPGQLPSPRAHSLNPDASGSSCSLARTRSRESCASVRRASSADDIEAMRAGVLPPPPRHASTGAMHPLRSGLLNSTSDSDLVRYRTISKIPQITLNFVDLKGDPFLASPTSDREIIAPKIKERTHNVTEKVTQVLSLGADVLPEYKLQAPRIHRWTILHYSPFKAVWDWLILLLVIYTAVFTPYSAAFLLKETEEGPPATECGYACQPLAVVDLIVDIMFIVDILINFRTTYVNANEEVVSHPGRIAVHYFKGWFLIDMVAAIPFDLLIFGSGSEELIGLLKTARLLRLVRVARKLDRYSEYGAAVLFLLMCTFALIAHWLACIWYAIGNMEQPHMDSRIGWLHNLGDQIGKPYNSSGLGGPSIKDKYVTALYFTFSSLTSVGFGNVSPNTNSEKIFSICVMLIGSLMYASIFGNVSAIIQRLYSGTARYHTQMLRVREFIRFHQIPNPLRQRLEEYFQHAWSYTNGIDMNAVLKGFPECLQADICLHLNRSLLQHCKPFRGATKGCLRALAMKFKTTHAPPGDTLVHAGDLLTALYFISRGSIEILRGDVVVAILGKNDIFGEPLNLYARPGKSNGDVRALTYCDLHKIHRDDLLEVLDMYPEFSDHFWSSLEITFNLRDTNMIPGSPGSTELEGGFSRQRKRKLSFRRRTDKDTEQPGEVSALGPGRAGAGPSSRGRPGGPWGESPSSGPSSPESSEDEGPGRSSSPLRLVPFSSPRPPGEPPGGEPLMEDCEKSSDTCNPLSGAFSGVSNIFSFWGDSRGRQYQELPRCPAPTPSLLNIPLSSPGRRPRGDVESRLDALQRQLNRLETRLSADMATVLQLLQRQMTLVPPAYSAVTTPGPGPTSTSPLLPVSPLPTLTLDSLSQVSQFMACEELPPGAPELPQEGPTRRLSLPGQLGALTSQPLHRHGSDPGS

In the case of `COC[C@H](C)Oc1cc(Oc2ccc(S(C)(=O)=O)cc2)cc(C(=O)Nc2nc(C)ns2)c1`, the pIC50 in data set [1] is < 4.52; in data set [6] it was 5.12. Also, the inhibition in vivo at 3 mg/kg in the data set with Rattus norvegicus [2] was 27%. Moreover, at Hexokinase-4, the pEC50 was 6.96. The Activity entry in data set [3] is “Non-toxic”. Besides, the logD in data set [4] was determined as 2.9. Moreover, the concentration in solution in [5] (solubility) came to 129 µM (≈ 61.6 µg/mL). Besides, the Papp A→B in [7] turned out to be 29 ×10⁻⁶ cm/s.
For the compound `O=C(O)c1ccc(NC(=O)c2cc(OCc3ccccc3F)cc(OCc3ccccc3F)c2)nc1`, the negative logarithm of the IC50 (pIC50) in [1] was 7.95; in data set [8], 8.15; in data set [9], 5.92. Besides, the Activity entry in [3] was “Toxic”.
In the same order, the values of `COC[C@H](C)Oc1cc(O[C@@H](C)Cc2ccccc2)cc(C(=O)Nc2ccc(C(=O)O)cn2)c1` are 6.33, 4.49, < 3.00 and “Toxic”.
`CC(C)COc1cc(OC(C)C)cc(C(=O)Nc2ccc(C(=O)O)cn2)c1`: the pIC50 in data set [1] was 8.00; in data set [8], 6.87; in data set [9], 4.66. Moreover, in data set [3], the Activity result is listed as “Toxic”.
Consider `COC[C@H](C)Oc1cc(Oc2ccc(S(C)(=O)=O)cc2)cc(C(=O)Nc2nccs2)c1`, for which the pIC50 in [1] is < 4.52. For the same compound, the inhibition in vivo at 10 mg/kg in the data set with Rattus norvegicus [10] was 29%. Besides, the negative-log EC50 (pEC50) on Hexokinase-4 was 7.22. The Activity entry in [3] is on record as “Non-toxic”. The same compound displayed a pH-dependent lipophilicity (logD) in data set [4] of 3.2. The compound further yielded a solubility in data set [5] of 20 µM (≈ 9.25 µg/mL). The apparent permeability from apical to basolateral (Papp A→B) in data set [7] came to 54 ×10⁻⁶ cm/s.
Turning to `COC[C@H](C)Oc1cc(Oc2ccc(S(C)(=O)=O)cc2)cc(C(=O)Nc2ccc(C(=O)O)cn2)c1`, in data set [4], the logD was -0.4. Also, the solubility in data set [5] is > 3000 µM. The Papp A→B in data set [7] was 0.3 ×10⁻⁶ cm/s.
As for `COC[C@H](C)Oc1cc(Oc2cc(F)cc(F)c2)cc(C(=O)Nc2ccc(C(=O)O)cn2)c1`, the negative-log IC50 (pIC50) was > 9.00 in data set [1], > 9.00 in data set [8] and 4.72 in data set [9]. Further, the Activity entry in [3] is reported as “Toxic”. This compound also showed a logD in data set [4] of 1.4. In addition, the solubility in [5] is 805 µM (≈ 369 µg/mL). Besides, the Papp A→B in [7] came out at 7.4 ×10⁻⁶ cm/s.
`COC[C@H](C)Oc1cc(Oc2cc(F)cc(F)c2)cc(C(=O)Nc2nccs2)c1` gave a pEC50 on Hexokinase-4 of 7.15. Besides, in data set [4], the pH-dependent lipophilicity (logD) worked out at 4.1. Further, the solubility in data set [5] is < 0.7 µM.
